Reference: patent US8962608B2, “Cycloalkylnitrile pyrazole carboxamides as janus kinase inhibitors” (Merck Sharp & Dohme Corp., priority 2011, dated 2015)

target: JAK1 (recombinant purified GST-tagged catalytic domain) (Homo sapiens (Human), UniProt P23458); test: biochemical
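Also: biochemical assay with HTRF read-out.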

Sequence of JAK1 (recombinant purified GST-tagged catalytic domain) (P23458 875-1153): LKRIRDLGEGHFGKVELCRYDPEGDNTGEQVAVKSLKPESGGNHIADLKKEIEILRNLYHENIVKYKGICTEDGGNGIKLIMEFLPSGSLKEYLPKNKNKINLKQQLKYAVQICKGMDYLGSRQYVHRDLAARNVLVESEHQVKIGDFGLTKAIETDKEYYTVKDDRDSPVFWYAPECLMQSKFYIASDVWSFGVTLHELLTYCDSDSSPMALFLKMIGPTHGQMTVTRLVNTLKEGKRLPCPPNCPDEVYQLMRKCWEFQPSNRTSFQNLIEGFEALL

**Q.** Which IC50 does the source give for `C[C@]1(O)CC[C@H](n2cc(C(N)=O)c(Nc3ccc(Cl)cc3)n2)[C@@H](C#N)C1` (single isomer, unassigned) [Example 32-10, 3-[(4-chlorophenyl)amino]-1-[(1S,2S,4S or 1R,2R,4R)-2-cyano-4-hydroxy-4-methylcyclohexyl]-1H-pyrazole-4-carboxamide] here?
**A.** 1 nM

**Q.** Which IC50 does the source give for `N#C[C@H]1C[C@@](O)(C2CC2)CC[C@@H]1n1cc(C(N)=O)c(Nc2ccc(Cl)cc2)n1` (single isomer, unassigned) [Example 32-14, 3-[(4-chlorophenyl)amino]-1-[(1S,2S,4R or 1R,2R,4S)-2-cyano-4-cyclopropyl-4-hydroxycyclohexyl]-1H-pyrazole-4-carboxamide] here?
**A.** 15 nM

**Q.** Which IC50 does the source give for `C[C@@H]1C[C@@H](C)N1[C@H]1CC[C@H](n2cc(C(N)=O)c(Nc3ccc(C(F)(F)F)cc3)n2)[C@@H](C#N)C1` (single isomer, unassigned) [Example 28-9, 1-{(1S,2S,4S or 1R,2R,4R)-2-cyano-4-[(2R,4R or 2S,4S)-2,4-dimethylazetidin-1-yl]cyclohexyl}-3-{[4-(trifluoromethyl)phenyl]amino}-1H-pyrazole-4-carboxamide] here?
**A.** 2 nM

**Q.** How did the IC50 turn out when `CC(C)(CF)c1ccc(Nc2nn([C@H]3CC[C@H](O)C[C@@H]3C#N)cc2C(N)=O)cc1` (single isomer, unassigned) [Example 33-21, 1-[(1S,2S,4S or 1R,2R,4R)-2-cyano-4-hydroxycyclohexyl]-3-{[4-(2-fluoro-1,1-dimethylethyl)phenyl]amino}-1H-pyrazole-4-carboxamide] was run?
**A.** 1 nM

**Q.** With `N#C[C@@H]1C[C@H](C(=O)N[C@@H](C2CC2)C(F)(F)F)CC[C@H]1n1cc(C(N)=O)c(Nc2ccc(Cl)cc2)n1` (single isomer, unassigned) [Example 35-16, 3-[(4-chlorophenyl)amino]-1-[(1R,2R,4R or 1S,2S,4S)-2-cyano-4-{[(1S)-1-cyclopropyl-2,2,2-trifluoroethyl]carbamoyl}cyclohexyl]-1H-pyrazole-4-carboxamide] as the compound, how does the IC50 read?
**A.** 9 nM

**Q.** Which IC50 does the source give for `CN(CCC(F)(F)F)[C@H]1CC[C@H](n2cc(C(N)=O)c(Nc3ccc(S(=O)(=O)C(F)(F)F)cc3)n2)[C@@H](C#N)C1` (single isomer, unassigned) [Example 28-171, 1-{(1S,2S,4S or 1R,2R,4R)-2-cyano-4-[methyl(3,3,3-tri-fluoropropyl)amino]cyclohexyl}-3-({4-[(trifluoromethyl)sulfonyl]phen-yl}amino)-1H-pyrazole-4-carboxamide] here?
**A.** 2 nM

**Q.** `N#C[C@H]1CC(NC2COC2)CC[C@@H]1n1cc(C(N)=O)c(Nc2ccc(S(=O)(=O)C(F)(F)F)cc2)n1` (single isomer, unassigned) [Example 28-155, 1-[(1S,2S or 1R,2R)-2-cyano-4-(oxetan-3-ylamino)cyclohexyl]-3-({4-[(trifluoromethyl)sulfonyl]phen-yl}amino)-1H-pyrazole-4-carboxamide] was tested. Which IC50 did it give?
**A.** 0.22 nM

**Q.** How did the IC50 turn out when `CC1(CNC(=O)[C@H]2CC[C@H](n3cc(C(N)=O)c(Nc4ccc(Cl)cc4)n3)[C@@H](C#N)C2)COC1` (single isomer, unassigned) [Example 35-31, 3-[(4-chlorophenyl)amino]-1-[(1S,2S,4S or 1R,2R,4R)-2-cyano-4-{[(3-methyloxetan-3-yl)methyl]carbamoyl}cyclohexyl]-1H-pyrazole-4-carboxamide] was run?
**A.** 9 nM

**Q.** How did the IC50 turn out when `C[C@@](O)(c1ccc(Nc2nn([C@H]3CCCC[C@@H]3C#N)cc2C(N)=O)cn1)C(F)(F)F` (single isomer, unassigned) [Example 17-35, 1-[(1S,2S or 1R,2R)-2-cyanocyclohexyl]-3-({6-[(1R or 1S)-2,2,2-trifluoro-1-hydroxy-1-methylethyl]pyridin-3-yl}amino)-1H)-pyrazole-4-carboxamide] was run?
**A.** 3 nM

**Q.** With `COC(=O)c1ccc(Nc2nn([C@H]3CCCC[C@@H]3C#N)cc2C(N)=O)cn1` (single isomer, unassigned) [Example 17-70, methyl 5-({4-carbamoyl-1-[(1R,2R or 1S,2S)-2-cyanocyclohexyl]-1H-pyrazol-3-yl}amino)pyridine-2-carboxylate] as the compound, how does the IC50 read?
**A.** 3 nM

**Q.** With `N#C[C@H]1C[C@](O)(C2CC2)CC[C@@H]1n1cc(C(N)=O)c(Nc2ccc(Cl)cc2)n1` (single isomer, unassigned) [Example 32-12, 3-[(4-chlorophenyl)aminol-1-[(1S,2S,4S or 1R,2R,4R)-2-cyano-4-cyclopropyl-4-hydroxycyclohexyl]-1H-pyrazole-4-carboxamide] as the compound, how does the IC50 read?
**A.** 1 nM

**Q.** Which IC50 does the source give for `COCC(C)(C)N[C@H]1CCC(n2cc(C(N)=O)c(Nc3ccccc3)n2)[C@@H](C#N)C1` (single isomer, unassigned) [Example 28-231, 1-{(1S,2S,4S or 1R,2R,4R)-2-cyano-4-[(2-methoxy-1,1-dimethylethyl)amino]cyclo-hexyl}-3-(phenylamino)-1H-pyrazole-4-carboxamide] here?
**A.** 16 nM

**Q.** How did the IC50 turn out when `N#C[C@@H]1CCCCC1n1cc(C(N)=O)c(Nc2ccc(S(=O)(=O)CC(F)(F)F)cc2)n1` (single isomer, unassigned) [Example 43-7, 1-[(1S,2S or 1R,2R)-2-cyanocyclohexyl]-3-({4-[(2,2,2-trifluoroethyl)sulfonyl]phenyl}amino)-1H-pyrazole-4-carboxamide] was run?
**A.** 2 nM

**Q.** For `CN(C)[C@H]1CC[C@H](n2cc(C(N)=O)c(Nc3ccc(Cl)cc3)n2)[C@@H](C#N)C1` (single isomer, unassigned) [Example 28-117, 3-[(4-chlorophenyl)amino]-1-[(1S,2S,4S or 1R,2R,4R)-2-cyano-4-(dimethylamino)cyclohexyl]-1H-pyrazole-4-carboxamide], which IC50 is on record?
**A.** 0.55 nM

**Q.** With `CN([C@H]1CC[C@H](n2cc(C(N)=O)c(Nc3ccc(Cl)cc3)n2)[C@@H](C#N)C1)C(C)(C)C` (single isomer, unassigned) [Example 28-6, 1-((1S,2S,4S or 1R,2R,4R)-4-(tert-butyl(methyl)amino)-2-cyanocyclohexyl)-3-((4-chlorophenyl)amino)-1H-pyrazole-4-carboxamide] as the compound, how does the IC50 read?
**A.** 0.55 nM

**Q.** For `N#C[C@@H]1C[C@H](C(=O)N2CC(F)(F)C2)CC[C@H]1n1cc(C(N)=O)c(Nc2ccc(Cl)cc2)n1` (single isomer, unassigned) [Example 35-15, 3-[(4-chlorophenyl)amino]-1-{(1R,2R,4R or 1S,2S,4S)-2-cyano-4-[(3,3-difluoroazetidin-1-yl)carbonyl]cyclohexyl}-1H-pyrazole-4-carboxamide], which IC50 is on record?
**A.** 3 nM

**Q.** Which IC50 does the source give for `CC(=O)c1ccc(Nc2nn([C@H]3CCCC[C@@H]3C#N)cc2C(N)=O)cc1` (single isomer, unassigned) [Example 17-27, 3-[(4-acetylphenyl)amino]-1-[(1S,2S or 1R,2R)-2-cyanocyclohexyl]-1H-pyrazole-4-carboxamide] here?
**A.** 0.3 nM

**Q.** With `N#C[C@H]1C[C@@H](N2CC(F)C2)CC[C@@H]1n1cc(C(N)=O)c(Nc2ccc(C(F)(F)F)cc2)n1` (single isomer, unassigned) [Example 28-105, 1-[(1S,2S,4S or 1R,2R,4R)-2-cyano-4-(3-fluoroazetidin-1-yl)cyclohexyl]-3-{[4-(trifluoromethyl)phenyl]amino}-1H-pyrazole-4-carboxamide] as the compound, how does the IC50 read?
**A.** 3 nM

**Q.** With `N#C[C@H]1C[C@@H](NC2CCOCC2)CCC1n1cc(C(N)=O)c(Nc2ccc(Cl)cc2)n1` (single isomer, unassigned) [Example 28-218, 3-[(4-chlorophenyl)amino]-1-[(1S,2S,4S or 1R,2R,4R)-2-cyano-4-(tetrahydro-2H-pyran-4-ylamino)cyclohexyl]-1H-pyrazole-4-carboxamide] as the compound, how does the IC50 read?
**A.** 4 nM

**Q.** `N#C[C@H]1C[C@H](O)CCC1n1cc(C(N)=O)c(Nc2ccnc(F)c2)n1` (mixture of isomers) [Example 15, 1-[(1S,2S,4R and 1R,2R,4S)-2-Cyano-4-hydroxycyclohexyl]-3-[(2-fluoropyridin-4-yl)amino]-1H-pyrazole-4-carboxamide] was tested. Which IC50 did it give?
**A.** 3 nM

**Q.** How did the IC50 turn out when `N#C[C@H]1C[C@@H](N2CC3(CCC3)C2)CC[C@@H]1n1cc(C(N)=O)c(Nc2ccc(C(F)(F)F)cc2)n1` (single isomer, unassigned) [Example 28-17, 1-[(1S,2S,4S or 1R,2R,4R)-4-(2-azaspiro[3.3]hept-2-yl)-2-cyanocyclohexyl]-3-{[4-(trifluoromethyl)phenyl]amino}-1H-pyrazole-4-carboxamide] was run?
**A.** 2 nM

**Q.** How did the IC50 turn out when `N#C[C@H]1C[C@@H](C(=O)N2CC(F)(F)C2)CC[C@@H]1n1cc(C(N)=O)c(Nc2ccc(Cl)cc2)n1` (single isomer, unassigned) [Example 35-6, 3-[(4-chlorophenyl)amino]-1-{(1S,2S,4S or 1R,2R,4R)-2-cyano-4-[(3,3-difluoroazetidin-1-yl)carbonyl]cyclohexyl}-1H-pyrazole-4-carboxamide] was run?
**A.** 62 nM

**Q.** For `CN(C)[C@H]1CC[C@H](n2cc(C(N)=O)c(Nc3ccc(F)cc3)n2)[C@@H](C#N)C1` (single isomer, unassigned) [Example 28-94, 1-[(1S,2S,4S or 1R,2R,4S)-2-cyano-4-(dimethylamino)cyclohexyl]-3-[(4-fluorophenyl)amino]-1H-pyrazole-4-carboxamide], which IC50 is on record?
**A.** 2 nM

**Q.** How did the IC50 turn out when `C[C@]1(O)CC[C@H](n2cc(C(N)=O)c(Nc3ccc(Cl)c(F)c3)n2)[C@@H](C#N)C1` (single isomer, unassigned) [Example 32-17, 3-[(4-chloro-3-fluorophenyl)amino]-1-[(1S,2S,4S or 1R,2R,4R)-2-cyano-4-hydroxy-4-methylcyclohexyl]-1H-pyrazole-4-carboxamide] was run?
**A.** 2 nM

**Q.** With `N#C[C@H]1C[C@@H](C(=O)N[C@H](C2CC2)C(F)(F)F)CC[C@@H]1n1cc(C(N)=O)c(Nc2ccc(Cl)cc2)n1` (single isomer, unassigned) [Example 35-14, 3-[(4-chlorophenyl)amino]-1-[(1S,2S,4S or 1R,2R,4R)-2-cyano-4-{[(1R)-1-cyclopropyl-2,2,2-trifluoroethyl]carbamoyl}cyclohexyl]-1H-pyrazole-4-carboxamide] as the compound, how does the IC50 read?
**A.** 9 nM

**Q.** How did the IC50 turn out when `CC1(CNC(=O)[C@@H]2CC[C@@H](n3cc(C(N)=O)c(Nc4ccc(Cl)cc4)n3)[C@H](C#N)C2)COC1` (single isomer, unassigned) [Example 35-29, 3-[(4-chlorophenyl)amino]-1-[(1R,2R,4R or 1S,2S,4S)-2-cyano-4-{[(3-methyloxetan-3-yl)methyl]carbamoyl}cyclohexyl]-1H-pyrazole-4-carboxamide] was run?
**A.** 38 nM
